Experimental data published in PMC4051630, “A Comparison of Protein Kinases Inhibitor Screening Methods Using Both Enzymatic Activity and Binding Affinity Determination” (PLoS ONE, 2014).

How the values were obtained:
Experiment in all cases: Differential Scanning Fluorimetry (DSF) Tm shift
Format in all cases: binding
[1] = molecular target: SRC Catalytic Domain (Homo sapiens, UniProt P12931); parameters: For all of them, we expressed and purified the catalytic domain separately; His-tag; made in house; host or cells: Escherichia coli; conditions: 2 µM protein, 10 µM inhibitor, average of 3 experiments, each in duplicate
Chain of SRC Catalytic Domain (P12931 270-523 limits assumed): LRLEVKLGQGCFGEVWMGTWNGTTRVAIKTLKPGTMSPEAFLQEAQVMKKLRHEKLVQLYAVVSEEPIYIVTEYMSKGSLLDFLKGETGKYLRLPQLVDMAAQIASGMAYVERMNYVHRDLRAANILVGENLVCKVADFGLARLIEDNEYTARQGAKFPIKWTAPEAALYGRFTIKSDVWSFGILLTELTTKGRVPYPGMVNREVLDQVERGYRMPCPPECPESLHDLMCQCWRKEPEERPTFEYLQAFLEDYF

[2] = molecular target: T1, FAK2 Catalytic Domain (Homo sapiens, UniProt Q14289); conditions: 2 µM protein, 10 µM inhibitor, average of 3 experiments, each in duplicate
T1 construct: For all of them, we expressed and purified the catalytic domain separately; His-tag; made in house; host or cells: Escherichia coli
T1 sequence (Q14289 425-683 limits assumed): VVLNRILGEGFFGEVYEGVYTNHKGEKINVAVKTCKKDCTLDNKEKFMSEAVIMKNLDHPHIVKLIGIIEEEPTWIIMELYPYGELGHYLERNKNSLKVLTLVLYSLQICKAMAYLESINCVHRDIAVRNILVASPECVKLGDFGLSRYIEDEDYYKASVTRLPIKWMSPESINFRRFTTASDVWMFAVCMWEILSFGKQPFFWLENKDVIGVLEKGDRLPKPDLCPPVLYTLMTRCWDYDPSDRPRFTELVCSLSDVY

[3] = molecular target: T2, STK3 Catalytic Domain (Homo sapiens, UniProt Q13188); conditions: 2 µM protein, 10 µM inhibitor, average of 3 experiments, each in duplicate
T2 construct: For all of them, we expressed and purified the catalytic domain separately; His-tag; made in house; host or cells: Escherichia coli
T2 sequence (Q13188 27-278 limits assumed): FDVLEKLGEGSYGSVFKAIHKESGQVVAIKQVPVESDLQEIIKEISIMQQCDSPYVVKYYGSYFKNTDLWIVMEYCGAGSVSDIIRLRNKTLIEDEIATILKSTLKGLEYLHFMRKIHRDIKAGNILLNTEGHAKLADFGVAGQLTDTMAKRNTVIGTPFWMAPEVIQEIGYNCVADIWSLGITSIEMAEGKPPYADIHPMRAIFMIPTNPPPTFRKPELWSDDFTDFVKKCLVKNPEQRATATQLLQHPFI

[4] = molecular target: T3, PAK7 Catalytic Domain (Homo sapiens, UniProt Q9P286); conditions: 2 µM protein, 10 µM inhibitor, average of 3 experiments, each in duplicate
T3 construct: For all of them, we expressed and purified the catalytic domain separately; His-tag; made in house; host or cells: Escherichia coli
T3 sequence (Q9P286 449-700 limits assumed): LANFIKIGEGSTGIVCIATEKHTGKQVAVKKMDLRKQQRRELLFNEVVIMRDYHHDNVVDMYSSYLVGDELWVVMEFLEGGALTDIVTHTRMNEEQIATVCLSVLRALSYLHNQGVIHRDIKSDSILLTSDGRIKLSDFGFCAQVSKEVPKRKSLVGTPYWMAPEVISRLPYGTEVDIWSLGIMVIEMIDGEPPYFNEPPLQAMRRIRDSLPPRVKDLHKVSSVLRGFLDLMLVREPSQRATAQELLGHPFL

[5] = molecular target: T4, PAK4 Catalytic Domain (Homo sapiens, UniProt O96013); conditions: 2 µM protein, 10 µM inhibitor, average of 3 experiments, each in duplicate
T4 construct: For all of them, we expressed and purified the catalytic domain separately; His-tag; made in house; host or cells: Escherichia coli
T4 sequence (O96013 321-572 limits assumed): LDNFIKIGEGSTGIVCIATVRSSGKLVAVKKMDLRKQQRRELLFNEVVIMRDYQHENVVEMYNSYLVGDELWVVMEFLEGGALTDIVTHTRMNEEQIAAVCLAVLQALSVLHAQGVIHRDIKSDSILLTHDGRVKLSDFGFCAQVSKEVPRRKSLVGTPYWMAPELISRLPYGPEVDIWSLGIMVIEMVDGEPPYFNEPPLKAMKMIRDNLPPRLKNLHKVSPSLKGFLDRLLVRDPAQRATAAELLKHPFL

[6] = molecular target: T5, CHK2 Catalytic Domain (Homo sapiens, UniProt O96017); conditions: 2 µM protein, 10 µM inhibitor, average of 3 experiments, each in duplicate
T5 construct: For all of them, we expressed and purified the catalytic domain separately; His-tag; made in house; host or cells: Escherichia coli
T5 sequence (O96017 220-486 limits assumed): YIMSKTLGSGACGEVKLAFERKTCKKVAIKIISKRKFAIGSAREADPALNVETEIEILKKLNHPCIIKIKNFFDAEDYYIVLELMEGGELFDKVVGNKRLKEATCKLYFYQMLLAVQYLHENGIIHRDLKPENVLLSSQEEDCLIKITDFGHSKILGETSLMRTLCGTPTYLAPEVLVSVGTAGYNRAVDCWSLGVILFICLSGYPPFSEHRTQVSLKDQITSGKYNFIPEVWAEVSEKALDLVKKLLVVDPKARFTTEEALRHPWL

[7] = molecular target: T6, FES Catalytic Domain+SH2 (Homo sapiens, UniProt P07332); conditions: 2 µM protein, 10 µM inhibitor, average of 3 experiments, each in duplicate
T6 construct: for 8, we also made a longer version containing one or more additional domains; His-tag; made in house; host or cells: Escherichia coli
T6 sequence (P07332 448-822 limits assumed): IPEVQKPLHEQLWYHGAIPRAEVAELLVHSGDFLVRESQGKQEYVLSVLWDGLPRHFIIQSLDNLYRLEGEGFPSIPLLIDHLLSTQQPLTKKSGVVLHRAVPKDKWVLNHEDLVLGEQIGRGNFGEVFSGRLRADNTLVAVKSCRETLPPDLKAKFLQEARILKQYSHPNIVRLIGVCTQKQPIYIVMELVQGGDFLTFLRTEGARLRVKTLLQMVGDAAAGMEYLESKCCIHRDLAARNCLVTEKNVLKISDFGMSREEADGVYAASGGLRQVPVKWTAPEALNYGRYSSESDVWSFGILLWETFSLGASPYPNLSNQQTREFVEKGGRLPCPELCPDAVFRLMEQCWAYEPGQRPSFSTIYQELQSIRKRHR

[8] = molecular target: T7, STK3 Catalytic domain+SARAH (Homo sapiens, UniProt Q13188); conditions: 2 µM protein, 10 µM inhibitor, average of 3 experiments, each in duplicate
T7 construct: for 8, we also made a longer version containing one or more additional domains; His-tag; made in house; host or cells: Escherichia coli
T7 sequence (Q13188 1-491): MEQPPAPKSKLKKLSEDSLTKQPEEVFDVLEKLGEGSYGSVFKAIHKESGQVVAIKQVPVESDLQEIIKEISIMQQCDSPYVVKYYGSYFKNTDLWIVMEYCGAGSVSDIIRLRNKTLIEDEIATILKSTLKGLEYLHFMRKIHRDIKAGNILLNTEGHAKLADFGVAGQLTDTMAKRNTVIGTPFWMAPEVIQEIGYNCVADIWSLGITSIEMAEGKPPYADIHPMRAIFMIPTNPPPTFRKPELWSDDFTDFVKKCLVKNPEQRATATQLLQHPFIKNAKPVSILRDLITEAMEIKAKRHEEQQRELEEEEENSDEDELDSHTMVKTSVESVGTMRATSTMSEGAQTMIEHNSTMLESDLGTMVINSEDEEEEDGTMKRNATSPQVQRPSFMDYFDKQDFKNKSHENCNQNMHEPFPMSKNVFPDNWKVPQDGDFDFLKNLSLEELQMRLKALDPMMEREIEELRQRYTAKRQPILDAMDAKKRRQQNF

[9] = molecular target: T8, FES Catalytic Domain (Homo sapiens, UniProt P07332); conditions: 2 µM protein, 10 µM inhibitor, average of 3 experiments, each in duplicate
T8 construct: For all of them, we expressed and purified the catalytic domain separately; His-tag; made in house; host or cells: Escherichia coli
T8 sequence (P07332 561-822 limits assumed): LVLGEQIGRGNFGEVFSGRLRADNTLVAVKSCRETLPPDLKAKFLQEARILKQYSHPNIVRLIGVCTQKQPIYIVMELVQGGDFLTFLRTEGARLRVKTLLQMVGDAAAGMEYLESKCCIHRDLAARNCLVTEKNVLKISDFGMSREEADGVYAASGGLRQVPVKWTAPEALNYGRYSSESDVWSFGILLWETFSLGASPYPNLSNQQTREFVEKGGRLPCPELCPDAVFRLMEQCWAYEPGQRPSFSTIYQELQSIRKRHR

[10] = molecular target: SRC Catalytic Domain+SH2+SH3 (Homo sapiens, UniProt P12931); conditions: 2 µM protein, 10 µM inhibitor, average of 3 experiments, each in duplicate
Chain of SRC Catalytic Domain+SH2+SH3 (P12931 84-523 limits assumed): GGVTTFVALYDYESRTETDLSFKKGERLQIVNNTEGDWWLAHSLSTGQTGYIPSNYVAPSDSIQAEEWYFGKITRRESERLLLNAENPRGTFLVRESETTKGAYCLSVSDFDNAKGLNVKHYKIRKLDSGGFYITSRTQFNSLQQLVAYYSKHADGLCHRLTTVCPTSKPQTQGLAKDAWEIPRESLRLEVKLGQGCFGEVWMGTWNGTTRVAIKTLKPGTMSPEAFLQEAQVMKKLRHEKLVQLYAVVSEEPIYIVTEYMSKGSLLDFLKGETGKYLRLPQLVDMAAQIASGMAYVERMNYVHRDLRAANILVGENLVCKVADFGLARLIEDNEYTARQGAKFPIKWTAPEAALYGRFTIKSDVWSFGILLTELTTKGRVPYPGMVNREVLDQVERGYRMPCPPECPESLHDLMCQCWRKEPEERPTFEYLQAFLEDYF

[11] = molecular target: T9, CDK2 + Cyclin A (Homo sapiens, UniProt P24941); conditions: CDK2 + Cyclin A; 2 µM protein, 10 µM inhibitor; average of 3 experiments, each in duplicate
T9 construct: CDK2 (P24941); 1–299; His-tag; made in house; host or cells: Escherichia coli

[12] = molecular target: T10, PAK4 Catalytic Domain+PBD (Homo sapiens, UniProt O96013); conditions: 2 µM protein, 10 µM inhibitor, average of 3 experiments, each in duplicate
T10 construct: for 8, we also made a longer version containing one or more additional domains; His-tag; made in house; host or cells: Escherichia coli
T10 sequence (O96013 whole entry, the tested form may be a part): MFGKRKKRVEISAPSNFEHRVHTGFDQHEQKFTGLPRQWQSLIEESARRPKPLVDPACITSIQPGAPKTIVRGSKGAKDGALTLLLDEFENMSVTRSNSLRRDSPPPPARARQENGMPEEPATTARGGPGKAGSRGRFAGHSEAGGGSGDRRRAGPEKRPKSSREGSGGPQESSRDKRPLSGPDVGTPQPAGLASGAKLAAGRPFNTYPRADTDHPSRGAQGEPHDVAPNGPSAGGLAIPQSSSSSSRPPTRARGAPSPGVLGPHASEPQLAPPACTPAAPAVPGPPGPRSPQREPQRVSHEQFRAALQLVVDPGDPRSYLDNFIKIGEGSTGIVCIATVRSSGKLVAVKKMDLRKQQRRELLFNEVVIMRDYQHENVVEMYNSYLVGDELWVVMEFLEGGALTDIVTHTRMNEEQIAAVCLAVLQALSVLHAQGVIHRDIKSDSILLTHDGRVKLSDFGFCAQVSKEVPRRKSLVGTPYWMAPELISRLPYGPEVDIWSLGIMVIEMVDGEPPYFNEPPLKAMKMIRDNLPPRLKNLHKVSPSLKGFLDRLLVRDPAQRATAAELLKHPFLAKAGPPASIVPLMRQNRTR

[13] = molecular target: T11, CDK2 + Cyclin E (Homo sapiens, UniProt P24941); conditions: CDK2 + Cyclin E; 2 µM protein, 10 µM inhibitor; average of 3 experiments, each in duplicate
T11 construct: CDK2 (P24941); 1–299; His-tag; made in house; host or cells: Escherichia coli

[14] = molecular target: T12, AKT3 Catalytic Domain (Homo sapiens, UniProt Q9Y243); conditions: 2 µM protein, 10 µM inhibitor, average of 3 experiments, each in duplicate
T12 construct: AKT3 (Q9Y243); CD; His-tag; made in house; host or cells: Escherichia coli
T12 sequence (Q9Y243 122-479): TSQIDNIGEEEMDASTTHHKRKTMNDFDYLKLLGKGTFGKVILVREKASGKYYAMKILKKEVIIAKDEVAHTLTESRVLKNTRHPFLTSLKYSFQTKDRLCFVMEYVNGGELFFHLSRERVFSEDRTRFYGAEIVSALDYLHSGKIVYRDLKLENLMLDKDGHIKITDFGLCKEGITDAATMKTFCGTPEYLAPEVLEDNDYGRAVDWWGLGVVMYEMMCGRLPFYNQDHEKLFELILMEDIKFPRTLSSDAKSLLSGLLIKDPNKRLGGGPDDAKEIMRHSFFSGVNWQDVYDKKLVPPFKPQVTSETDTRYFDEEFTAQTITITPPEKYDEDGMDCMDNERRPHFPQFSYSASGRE

[15] = molecular target: T13, DMPK Catalytic Domain (Homo sapiens, UniProt Q09013); conditions: 2 µM protein, 10 µM inhibitor, average of 3 experiments, each in duplicate
T13 construct: For all of them, we expressed and purified the catalytic domain separately; His-tag; made in house; host or cells: Escherichia coli
T13 sequence (Q09013 71-339 limits assumed): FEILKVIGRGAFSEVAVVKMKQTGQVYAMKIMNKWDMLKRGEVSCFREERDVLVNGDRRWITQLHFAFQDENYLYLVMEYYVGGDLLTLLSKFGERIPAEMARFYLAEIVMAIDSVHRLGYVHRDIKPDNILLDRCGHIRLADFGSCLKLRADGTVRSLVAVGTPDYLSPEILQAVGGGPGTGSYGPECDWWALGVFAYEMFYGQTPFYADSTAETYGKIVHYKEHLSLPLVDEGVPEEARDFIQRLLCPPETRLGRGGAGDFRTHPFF

Compound: CCCC(=O)Oc1ccc2[nH]c(C(=O)c3cc4ccccc4[nH]3)cc2c1
- Melting temperature (Tm) shift [1]: 1.1 degrees Celcius
- Melting temperature (Tm) shift [2]: 0.3 degrees Celcius
- Melting temperature (Tm) shift [3]: 0.5 degrees Celcius
- Melting temperature (Tm) shift [4]: 0.1 degrees Celcius
- Melting temperature (Tm) shift [5]: 0.0 degrees Celcius
- Melting temperature (Tm) shift [6]: 1.4 degrees Celcius
- Melting temperature (Tm) shift [7]: 0.1 degrees Celcius
- Melting temperature (Tm) shift [8]: 1.2 degrees Celcius
- Melting temperature (Tm) shift [9]: 0.3 degrees Celcius
- Melting temperature (Tm) shift [10]: 0.6 degrees Celcius

Compound: Nc1ncnc2c1c(I)cn2[C@@H]1O[C@H](CO)[C@@H](O)[C@H]1O [5-Iodotubercidin]
- Melting temperature (Tm) shift [2]: 0.4 degrees Celcius
- Melting temperature (Tm) shift [11]: 2.5 degrees Celcius
- Melting temperature (Tm) shift [3]: 3.0 degrees Celcius
- Melting temperature (Tm) shift [12]: 0.7 degrees Celcius
- Melting temperature (Tm) shift [4]: 0.4 degrees Celcius
- Melting temperature (Tm) shift [13]: 1.3 degrees Celcius
- Melting temperature (Tm) shift [5]: 0.7 degrees Celcius
- Melting temperature (Tm) shift [14]: 0.0 degrees Celcius
- Melting temperature (Tm) shift [6]: 0.6 degrees Celcius
- Melting temperature (Tm) shift [7]: 0.0 degrees Celcius
- Melting temperature (Tm) shift [15]: 0.2 degrees Celcius
- Melting temperature (Tm) shift [8]: 1.5 degrees Celcius
- Melting temperature (Tm) shift [9]: 1.0 degrees Celcius
- Melting temperature (Tm) shift [10]: 0.1 degrees Celcius

Compound: Cl.NCCCn1cc(C2=C(c3c[nH]c4ccccc34)C(=O)NC2=O)c2ccccc21 [Bisindolylmaleimide III, Hydrochloride]
- Melting temperature (Tm) shift [2]: 0.7 degrees Celcius
- Melting temperature (Tm) shift [11]: 2.1 degrees Celcius
- Melting temperature (Tm) shift [3]: 1.8 degrees Celcius
- Melting temperature (Tm) shift [12]: 1.6 degrees Celcius
- Melting temperature (Tm) shift [4]: 1.1 degrees Celcius
- Melting temperature (Tm) shift [13]: 0.7 degrees Celcius
- Melting temperature (Tm) shift [5]: 1.4 degrees Celcius
- Melting temperature (Tm) shift [14]: 0.6 degrees Celcius
- Melting temperature (Tm) shift [6]: 5.6 degrees Celcius
- Melting temperature (Tm) shift [7]: 0.5 degrees Celcius
- Melting temperature (Tm) shift [15]: 4.2 degrees Celcius
- Melting temperature (Tm) shift [8]: 4.6 degrees Celcius
- Melting temperature (Tm) shift [9]: 0.8 degrees Celcius
- Melting temperature (Tm) shift [10]: 0.0 degrees Celcius

Compound: Cc1nc(N)sc1-c1ccnc(Nc2cccc([N+](=O)[O-])c2)n1 [Cdk2/9 Inhibitor]
- Melting temperature (Tm) shift [1]: 0.5 degrees Celcius
- Melting temperature (Tm) shift [2]: 0.5 degrees Celcius
- Melting temperature (Tm) shift [3]: 0.7 degrees Celcius
- Melting temperature (Tm) shift [12]: 2.0 degrees Celcius
- Melting temperature (Tm) shift [4]: 0.3 degrees Celcius
- Melting temperature (Tm) shift [5]: 0.7 degrees Celcius
- Melting temperature (Tm) shift [6]: 1.8 degrees Celcius
- Melting temperature (Tm) shift [7]: 0.1 degrees Celcius
- Melting temperature (Tm) shift [15]: 0.4 degrees Celcius
- Melting temperature (Tm) shift [8]: 0.4 degrees Celcius
- Melting temperature (Tm) shift [9]: 0.3 degrees Celcius
- Melting temperature (Tm) shift [10]: 0.6 degrees Celcius

Compound: CN1C(=O)C(=C2Nc3ccccc3C2=NO)c2ccc(Br)cc21 [GSK-3 Inhibitor IX, Control, MeBIO]
- Melting temperature (Tm) shift [1]: 0.0 degrees Celcius
- Melting temperature (Tm) shift [2]: 0.1 degrees Celcius
- Melting temperature (Tm) shift [3]: 0.1 degrees Celcius
- Melting temperature (Tm) shift [12]: 0.3 degrees Celcius
- Melting temperature (Tm) shift [4]: 0.0 degrees Celcius
- Melting temperature (Tm) shift [5]: 0.0 degrees Celcius
- Melting temperature (Tm) shift [8]: 0.4 degrees Celcius
- Melting temperature (Tm) shift [10]: 0.0 degrees Celcius

Compound: Cl.Cl.O=S(=O)(NCCNC/C=C/c1ccc(Br)cc1)c1cccc2cnccc12 [H-89, Dihydrochloride]
- Melting temperature (Tm) shift [2]: 0.8 degrees Celcius
- Melting temperature (Tm) shift [11]: 0.5 degrees Celcius
- Melting temperature (Tm) shift [3]: 0.0 degrees Celcius
- Melting temperature (Tm) shift [12]: 0.0 degrees Celcius
- Melting temperature (Tm) shift [4]: 0.3 degrees Celcius
- Melting temperature (Tm) shift [13]: 0.3 degrees Celcius
- Melting temperature (Tm) shift [5]: 0.4 degrees Celcius
- Melting temperature (Tm) shift [14]: 0.3 degrees Celcius
- Melting temperature (Tm) shift [6]: 0.5 degrees Celcius
- Melting temperature (Tm) shift [7]: 0.2 degrees Celcius
- Melting temperature (Tm) shift [15]: 0.0 degrees Celcius
- Melting temperature (Tm) shift [8]: 0.4 degrees Celcius
- Melting temperature (Tm) shift [9]: 0.4 degrees Celcius
- Melting temperature (Tm) shift [10]: 0.0 degrees Celcius

Compound: N#CC(c1ccnc(NCCc2cccnc2)n1)c1nc2ccccc2s1 (centres unmarked) [JNK Inhibitor V]
- Melting temperature (Tm) shift [2]: 0.4 degrees Celcius
- Melting temperature (Tm) shift [11]: 0.2 degrees Celcius
- Melting temperature (Tm) shift [3]: 0.2 degrees Celcius
- Melting temperature (Tm) shift [12]: 0.1 degrees Celcius
- Melting temperature (Tm) shift [4]: 0.0 degrees Celcius
- Melting temperature (Tm) shift [13]: 0.3 degrees Celcius
- Melting temperature (Tm) shift [5]: 0.1 degrees Celcius
- Melting temperature (Tm) shift [14]: 0.0 degrees Celcius
- Melting temperature (Tm) shift [6]: 0.3 degrees Celcius
- Melting temperature (Tm) shift [7]: 0.0 degrees Celcius
- Melting temperature (Tm) shift [15]: 0.8 degrees Celcius
- Melting temperature (Tm) shift [8]: 0.3 degrees Celcius
- Melting temperature (Tm) shift [10]: 0.1 degrees Celcius

Compound: Nc1ncnc2c1c(-c1ccc(Oc3ccccc3)cc1)cn2C1CCCC1 [Lck Inhibitor]
- Melting temperature (Tm) shift [1]: 9.4 degrees Celcius
- Melting temperature (Tm) shift [3]: 1.3 degrees Celcius
- Melting temperature (Tm) shift [4]: 0.0 degrees Celcius
- Melting temperature (Tm) shift [6]: 2.2 degrees Celcius
- Melting temperature (Tm) shift [7]: 0.3 degrees Celcius
- Melting temperature (Tm) shift [8]: 0.2 degrees Celcius
- Melting temperature (Tm) shift [9]: 0.7 degrees Celcius
- Melting temperature (Tm) shift [10]: 6.4 degrees Celcius

Compound: COc1cc2nccc(Oc3ccc(NC(=S)NC(=O)c4ccccc4C)cc3)c2cc1OC [PDGF RTK Inhibitor]
- Melting temperature (Tm) shift [1]: 5.9 degrees Celcius
- Melting temperature (Tm) shift [2]: 1.0 degrees Celcius
- Melting temperature (Tm) shift [3]: 1.7 degrees Celcius
- Melting temperature (Tm) shift [6]: 7.6 degrees Celcius
- Melting temperature (Tm) shift [7]: 1.5 degrees Celcius
- Melting temperature (Tm) shift [8]: 0.0 degrees Celcius
- Melting temperature (Tm) shift [9]: 1.6 degrees Celcius
- Melting temperature (Tm) shift [10]: 3.9 degrees Celcius
